Results as given in patent US20180140612A1, “TOPICAL OPHTHALMIC FORMULATIONS FOR THE TREATMENT AND PREVENTION OF MIGRAINE HEADACHE” (Ora, Inc., priority 2013, published 2018).
Counter-ions that a name gives are not always drawn.

Tests used:
[1] = migraineurs versus control subjects; cited from earlier work
[2] = topical 0.5% ophthalmic solution, twice daily dosing for 8 days, cited from earlier work
[3] = cited from earlier work
[4] = instillation of ophthalmic drops in the eye of subjects with migraine; format: in vivo, human; details: two subjects with occasional migraine
Experimental: Data from two subjects with occasional migraine has shown that one drop of ketotifen 0.025% in the eye was successful in providing relief within 2 hours post treatment
Data from two subjects with occasional migraine has shown that one drop of ketotifen 0.05% in the eye was successful in providing relief within 2 hours post treatment

[5] = first month of treatment; prescription-event data; cited from earlier work

NCCc1c[nH]cn1 [histamine]
induction of migraine headache [1]: induced migraine headache more often in migraineurs than in control subjects

CC(C)(C)NC[C@H](O)COc1nsnc1N1CCOCC1 [timolol maleate]
time of peak plasma concentration following first dose [2]: ≤ 4 h | peak plasma concentration ([2]; following first dose): 0.5 ng/mL | further attacks of migraine ([3]; case report, person with history of common migraine, topical timolol maleate 0.5% for bilateral ocular hypertension): did not experience any further attacks of migraine

CN1CCC(=C2c3ccccc3CC(=O)c3sccc32)CC1 [ketotifen]
time to relief post treatment ([4]; one drop of ketotifen 0.025% in the eye): ≤ 2 h | time to relief post treatment ([4]; one drop of ketotifen 0.05% in the eye): ≤ 2 h

CC(C)NCC(O)COc1ccc(CCOCC2CC2)cc1 (centres unmarked) [betaxolol]
migraine related complaints ([3]; case control study, group of subjects receiving the topical beta-blocker): showed improvement in their migraine related complaints

O=C(O)COCCN1CCN([C@H](c2ccccc2)c2ccc(Cl)cc2)CC1 [levocetirizine]
association of headache/migraines with treatment [5]: positively associated
